# Experimental data as given in patent US20210317111A1, “NOVEL MEDICAMENT FOR TREATING INFLAMMATORY BOWEL DISEASE” (OTSUKA PHARMACEUTICAL CO., LTD., priority 2018, published 2021).
# Columns and labels:
# [1] = test system: Bacteroides spp; assay: antibacterial activity against intestinal bacteria (MIC); format: cell-based
# Protocol: (§1) The antibacterial activity of the present compound was examined against Bacteroides spp and Streptococcus spp, which are enterobacteria.
# (§2) The antibacterial activity (minimum inhibitory concentration (MIC)) was assayed by agar plate dilution method or broth microdilution method, which is based on Clinical and laboratory standards institute (CLSI). Specifically, the experiment was performed as follows. The compound of the present invention or the control substance was prepared by 2-fold serial dilution, respectively, and test strains were inoculated on the medium suitable for each test strain. After the inoculation followed by incubation at 37° C. under aerobic or anaerobic conditions, the minimum concentration at which colony formation was not observed in agar plate dilution method, or the minimum concentration without turbidity of the culture medium (the bacterial growth was not observed) in broth microdilution method was determined as MIC.
# [2] = test system: Streptococcus spp; assay: as above; format: cell-based
# Protocol: as §1, §2
# [3] = test system: naive T cell transfer model of colitis; assay: naive T cell transfer model of colitis (Crohn's disease mouse model), histological scoring of large intestine; format: in vivo
# Text: From spleen of Balb/c mouse, naive T cell (CD4+CD62L+CD44−) was isolated with antibody-coated magnetic beads. The isolated naive T cell (5×10^5 cells/mouse) was transplanted in abdominal cavity of SCID mouse which is a severe combined immunodeficiency animal. The present compound was orally administered to the mouse once a day at each dose defined in Table 1 below, from the first day of the transplantation for Test 1, or from the 2nd week after the transplantation for Test 2, until 5 weeks after the transplantation. [table] […] The anti-TNF-α antibody was intraperitoneally administered to the mouse twice a week at each dose defined in Table 2 below, from the 2nd week after the transplantation, for 2 weeks. [table] At 5th week for Tests 1 and 2, and at 4th week for Test 3, the large intestine was removed, and the length and weight of the large intestine were measured. In addition, the large intestine was fixed with formalin to carry out pathological analysis. From the removed large intestine, the anus part, the center part, and the cecal part were cut out each in about 0.5 cm, and each part was fixed with formalin. The paraffin block thereof was prepared, sliced, and subjected to H&E staining. The H&E stained slice was examined with a microscope to score it histologically. The histological scoring was carried out by scoring the inflammatory cell infiltrate, the Goblet cell loss, and the hyperplasia of mucosal epithelium, based on the standard (0-4) defined in Table 3 below. [table]
# [4] = test system: Mycobacterium avium subspecies paratuberculosis (MAP); assay: antibacterial activity (MIC), broth microdilution method; format: cell-based; conditions: 336 h
# Protocol: The chronic enterocolitis of ruminants which is caused by Mycobacterium avium subspecies paratuberculosis (MAP) is similar to Crohn's disease. […] Thus, the antibacterial activity of the present compound against MAP was evaluated. The used comparative drugs for the present compound were rifaximin (RFX), ciprofloxacin (CPFX), metronidazole (MTZ), clarithromycin (CAM), rifabutin (RBT), and clofazimine (CFZ).
# The antibacterial activity (minimum inhibitory concentration (MIC)) was assayed by broth microdilution method which is based on Clinical and laboratory standards institute (CLSI).
# The 5 strains of MAP were inoculated onto Middlebrook 7H9 agar containing 10% dubos oleic albumin complex (OADC), Tween 80 (0.5 g/L), mycobactin J (2 mg/L), and 1.5% agar, and pre-cultured at 37° C. under an aerobic condition for 14 days. After the pre-culture, the bacterial cell was scraped out from the agar, and prepared to the turbidity of 0.5 Mcfarland standard using Middlebrook 7H9 broth containing 10% dubos oleic albumin complex (OADC), Tween 80 (0.5 g/L), and mycobactin J (2 mg/L)]. The 10-fold diluted solution of the bacterial suspension was inoculated onto Middlebrook 7H9 broth 96-well plate which contains the present compound or any one of the comparative drugs, and incubated at 37° C. under an aerobic condition for 14 days.
# After the incubation, the bacterial growth in each well of the 96-well plate was visually checked. The minimum concentration at which the bacterial growth was not observed, compared with the result of the well containing neither present compound nor comparative drug was determined as MIC of the present compound or each comparative drug against each test bacterium.
# [5] = test system: proliferated T cell; assay: T-cell proliferation (CFSE) in stimulated PBMC; format: cell-based, human; conditions: both CD4-positive and CD8-positive T-cell; 2 days
# Protocol: Peripheral blood (30 mL) derived from a healthy adult was layered on a lymphocyte tube Leucosep™ containing Lymphoprep (15 mL), and the tube was centrifuged at room temperature at 2000 rpm for 20 minutes. After the centrifugation, the upper 5 mL of the plasma was removed from the peripheral blood mononuclear cell (PBMC) layer with an aspirator, and the left solution containing the PBMC layer was collected into a new 50 mL tube. To the collected solution was added an equal amount of Hanks' balanced salt solution (HBSS) to dilute the cell suspension. The diluted solution was centrifuged at 4° C. at 1800 rpm for 5 minutes. After the centrifugation, the supernatant was discarded, the rest was suspended in 10 mL of AIM-V. The suspension was centrifuged at 4° C. at 1500 rpm for 5 minutes, and the supernatant was discarded. The same washing process was repeated one more time. After the centrifugation, the supernatant was discarded, and the obtained cell was suspended in 5% FBS-containing AIM-V to be used in the following tests. […]
# [6] = test system: activated T cell (CD25+ cell); assay: T-cell activation (CD25+ cells) in anti-CD3/CD28/CD2 bead-stimulated PBMC; format: cell-based, human; conditions: both CD4-positive and CD8-positive T-cell
# Protocol: (§3) Peripheral blood (30 mL) derived from a healthy adult was layered on a lymphocyte tube Leucosep™ containing Lymphoprep (15 mL), and the tube was centrifuged at room temperature at 2000 rpm for 20 minutes. After the centrifugation, the upper 5 mL of the plasma was removed from the peripheral blood mononuclear cell (PBMC) layer with an aspirator, and the left solution containing the PBMC layer was collected into a new 50 mL tube. To the collected solution was added an equal amount of Hanks' balanced salt solution (HBSS) to dilute the cell suspension. The diluted solution was centrifuged at 4° C. at 1800 rpm for 5 minutes. After the centrifugation, the supernatant was discarded, the rest was suspended in 10 mL of AIM-V. The suspension was centrifuged at 4° C. at 1500 rpm for 5 minutes, and the supernatant was discarded. The same washing process was repeated one more time. After the centrifugation, the supernatant was discarded, and the obtained cell was suspended in 5% FBS-containing AIM-V to be used in the following tests.
# (§4) To 96-well round-bottom plate were added 100 μL of medium containing the compound, 100 μL (0.5×10^5 beads) of anti-CD3/CD28/CD2-loaded bead suspension (Miltenyi), and 100 μL (1×10^5 cells) of PBMC suspension. The mixture was incubated at 37° C. in 5% CO2 for 3 days.
# [7] = test system: TNF-α; assay: TNF-α production by stimulated PBMC (ELISA); format: cell-based; conditions: stimulated human PBMC, 3 days, culture supernatant
# Protocol: as §3, §4
structure (smiles),measurement,setting,value
"Cc1c(-c2cnc(N)c(C#N)c2)c(F)cc2c(=O)c(C(=O)O)cn(C3CC3)c12 [the present compound, 7-(6-amino-5-cyanopyridin-3-yl)-1-cyclopropyl-6-fluoro-1,4-dihydro-8-methyl-4-oxo-3-quinoline-carboxylic acid]",antibacterial activity,[1],strong antibacterial activities
same,antibacterial activity,[2],strong antibacterial activities
same,"histological score (Test 1, preventive effect)","[3]; 2.5 mg/kg or more, oral once a day from first day of transplantation until 5 weeks, vs solvent control",inhibited the increase of the histological score
same,"histological score (Test 2, therapeutic effect)","[3]; 5 mg/kg or more, oral once a day from 2nd week after transplantation until 5 weeks, vs solvent control",significantly inhibited the increase of the histological score
same,"histological score (Test 3, comparative study)","[3]; from 2nd week after transplantation for 2 weeks, present compound, CPFX, RFX oral once a day 10 mg/kg, antibody 25 mg/kg i.p. twice a week, 4th week",potent inhibitory effect at the same level as Normal group
same,MIC,[4],0.06 to 0.5 µg/mL
same,inhibition of T cell proliferation (MFI CFSE),[5],effect of cell growth inhibition
same,inhibitory activity on T cell activation compared with prednisolone,[6]; 30 μM,higher inhibitory activity than prednisolone
same,rate of activated T cell,"[6]; 6 people's human PBMC, 3 days",decreased
same,cytokine production (TNF-α),[7],decreased
